Assay results taken from PubChem BioAssay (NCI).
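Cultured in 96-well plates, cells were exposed to test compound for 48 hours across five concentrations. TGI denotes the concentration required for complete inhibition of growth.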

Columns and labels:
Test in all cases: growth of human tumour cells (NCI), 48 h
[1] = test system: 786-0 renal
[2] = test system: A498 renal
[3] = test system: A549 NSCLC
[4] = test system: ACHN renal
[5] = test system: BT-549 breast
[6] = test system: CAKI-1 renal
[7] = test system: CCRF-CEM leukemia
[8] = test system: COLO 205 colon
[9] = test system: EKVX NSCLC
[10] = test system: HCT-116 colon
[11] = test system: HCT-15 colon
[12] = test system: HOP-62 NSCLC
[13] = test system: HOP-92 NSCLC
[14] = test system: HS 578T breast
[15] = test system: HT29 colon
[16] = test system: IGROV1 ovarian
[17] = test system: K-562 leukemia
[18] = test system: KM12 colon
[19] = test system: LOX IMVI melanoma
[20] = test system: M14 melanoma
[21] = test system: MALME-3M melanoma
[22] = test system: MCF7 breast
[23] = test system: MDA-MB-231 breast
[24] = test system: MDA-MB-435
[25] = test system: MDA-N
[26] = test system: MOLT-4 leukemia
[27] = test system: NCI-H226 lung
[28] = test system: NCI-H23 lung
[29] = test system: NCI-H460 lung
[30] = test system: NCI-H522 lung
[31] = test system: NCI/ADR-RES ovarian
[32] = test system: OVCAR-3 ovarian
[33] = test system: OVCAR-4 ovarian
[34] = test system: OVCAR-5 ovarian
[35] = test system: OVCAR-8 ovarian
[36] = test system: PC-3 prostate
[37] = test system: RPMI-8226 leukemia
[38] = test system: SF-295 CNS
[39] = test system: SF-539 CNS
[40] = test system: SK-MEL-2 melanoma
[41] = test system: SK-MEL-28 melanoma
[42] = test system: SK-MEL-5 melanoma
[43] = test system: SK-OV-3 ovarian
[44] = test system: SN12C renal
[45] = test system: SNB-19 CNS
[46] = test system: SNB-75 CNS
[47] = test system: SW-620 colon
[48] = test system: T-47D breast
[49] = test system: U251 CNS
[50] = test system: UACC-62 melanoma
[51] = test system: UO-31 renal

Measured: TGI

CC(C)(NC(=O)OCc1ccccc1)C(=O)OC(=O)C(C)(C)NC(=O)OCc1ccccc1
> 100 µM: all assays above
